The source of these data is PubChem BioAssay AID330 (DTP/NCI, 2004).

Where “and” joins values, the source holds several entries; their conditions need not be identical. Identical values can stand only once. Inconclusive results and toxic doses are left out.

This assay deals with P388 leukemia ip, CD2F1 mice, survival T/C. Put plainly: NCI In Vivo Anticancer Drug Screen. Data for tumor model P388 Leukemia (intraperitoneal) in CD2F1 (CDF1) mice. The following applies: endpoint: median survival time, higher = longer survival. Summed up:
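Mice carrying the transplanted tumor received test compound or vehicle. Survival was recorded in each group, and the value is the treated-group measurement divided by that of the vehicle-treated control group.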

The mark [1] stands for this setting: dose: 50.0 mg/kg/injection, schedule: Q01DX009 (ip), vehicle: Klucel (hydroxypropylcellulose) (HPC).
Setting [2] is: dose: 100.0 mg/kg/injection, schedule: Q01DX001 (ip), vehicle: Klucel (hydroxypropylcellulose) (HPC).
The mark [3] stands for this setting: dose: 200.0 mg/kg/injection, schedule: Q01DX001 (ip), vehicle: Klucel (hydroxypropylcellulose) (HPC).
Where [4] appears, read: dose: 400.0 mg/kg/injection, schedule: Q01DX001 (ip), vehicle: Klucel (hydroxypropylcellulose) (HPC).
The mark [5] stands for this setting: dose: 50.0 mg/kg/injection, schedule: Q01DX009 (ip), vehicle: saline with Tween-80.
The mark [6] stands for this setting: dose: 100.0 mg/kg/injection, schedule: Q01DX009 (ip), vehicle: saline with Tween-80.
Where [7] appears, read: dose: 200.0 mg/kg/injection, schedule: Q01DX009 (ip), vehicle: saline with Tween-80.
[8] abbreviates: dose: 12.5 mg/kg/injection, schedule: Q01DX005 (ip), vehicle: Klucel (hydroxypropylcellulose) (HPC).
The mark [9] stands for this setting: dose: 25.0 mg/kg/injection, schedule: Q01DX005 (ip), vehicle: Klucel (hydroxypropylcellulose) (HPC).
Setting [10] is: dose: 50.0 mg/kg/injection, schedule: Q01DX005 (ip), vehicle: Klucel (hydroxypropylcellulose) (HPC).
Setting [11] is: dose: 100.0 mg/kg/injection, schedule: Q01DX005 (ip), vehicle: Klucel (hydroxypropylcellulose) (HPC).
[12] abbreviates: dose: 100.0 mg/kg/injection, schedule: Q01DX009 (ip), vehicle: Klucel (hydroxypropylcellulose) (HPC).
The mark [13] stands for this setting: dose: 200.0 mg/kg/injection, schedule: Q01DX009 (ip), vehicle: Klucel (hydroxypropylcellulose) (HPC).
[14] abbreviates: dose: 200.0 mg/kg/injection, schedule: Q01DX005 (ip), vehicle: Klucel (hydroxypropylcellulose) (HPC).
Setting [15] is: dose: 50.0 mg/kg/injection, schedule: Q01DX005 (ip), vehicle: saline with Tween-80.
The mark [16] stands for this setting: dose: 100.0 mg/kg/injection, schedule: Q01DX005 (ip), vehicle: saline with Tween-80.
Where [17] appears, read: dose: 200.0 mg/kg/injection, schedule: Q01DX005 (ip), vehicle: saline with Tween-80.
Setting [18] is: dose: 60.0 mg/kg/injection, schedule: Q01DX005 (ip), vehicle: saline with Tween-80.
Setting [19] is: dose: 120.0 mg/kg/injection, schedule: Q01DX005 (ip), vehicle: saline with Tween-80.
The mark [20] stands for this setting: dose: 240.0 mg/kg/injection, schedule: Q01DX005 (ip), vehicle: saline with Tween-80.
[21] abbreviates: dose: 60.0 mg/kg/injection, schedule: Q01DX005 (ip), vehicle: Klucel (hydroxypropylcellulose) (HPC).
Where [22] appears, read: dose: 120.0 mg/kg/injection, schedule: Q01DX005 (ip), vehicle: Klucel (hydroxypropylcellulose) (HPC).
Where [23] appears, read: dose: 240.0 mg/kg/injection, schedule: Q01DX005 (ip), vehicle: Klucel (hydroxypropylcellulose) (HPC).

As for `NC1CC2CCCCC2CC1(O)c1ccccc1` (centres undefined), the T/C runs as follows: (dose: 12.5 mg/kg/injection, schedule: Q01DX009 (ip), vehicle: Klucel (hydroxypropylcellulose) (HPC)) 98 % of control; (dose: 25.0 mg/kg/injection, schedule: Q01DX009 (ip), vehicle: Klucel (hydroxypropylcellulose) (HPC)) 107 % of control; under setting [1], 107 % of control.
Regarding `N#CC1CCCC(Cc2ccccc2)(c2ccccc2)C1=O` (centres undefined), the T/C was 101 % of control under setting [2], 102 % of control under setting [3] and 100 % of control under setting [4].
On to `COc1cc(C2N3Cc4ccccc4CN2c2ccccc23)cc(OC)c1OC`, for which the T/C is, setting by setting: under setting [2], 101 % of control; under setting [3], 99 % of control; under setting [4], 102 % of control.
For `CO/C=C1\SC(=S)N(c2ccc(NC(C)=O)cc2)C1=O`, the T/C under setting [5] was 93 % of control, the T/C under setting [6] was 92 % of control and the T/C under setting [7] is 96 % of control.
For `CC(C)(CO)CN1CCCCC1`, the T/C is, setting by setting: (dose: 50.0 mg/kg/injection, schedule: Q04DX003 (ip), vehicle: saline with Tween-80) 100 % of control; (dose: 100.0 mg/kg/injection, schedule: Q04DX003 (ip), vehicle: saline with Tween-80) 100 % of control; (dose: 200.0 mg/kg/injection, schedule: Q04DX003 (ip), vehicle: saline with Tween-80) 100 % of control.
In the case of `CN(C)/C(=C(\CBr)C(=O)c1ccc(-c2ccccc2)cc1)c1ccccc1`, the T/C reads like this: under setting [8], 108 % of control; under setting [9], 105 % of control; under setting [10], 105 % of control and 107 % of control.
With `COc1ccc(OC(=O)/C=C/c2ccccc2)cc1`, the T/C (dose: 85.0 mg/kg/injection, schedule: Q04DX002 (ip), vehicle: saline with Tween-80) is 102 % of control.
As to `Nc1cccc(NCc2ccncc2)n1`, the T/C was 98 % of control and 99 % of control and 100 % of control (dose: 6.25 mg/kg/injection, schedule: Q01DX005 (ip), vehicle: Klucel (hydroxypropylcellulose) (HPC)); 100 % of control and 101 % of control and 94 % of control under setting [8]; 100 % of control (2×) and 96 % of control under setting [9]; 113 % of control under setting [11].
As to `COc1ccc(C2CCCCCC2)c(OC)c1OC`, the T/C is 98 % of control and 108 % of control under setting [1]; 113 % of control under setting [12]; 103 % of control and 105 % of control under setting [13].
`CC(C)c1nccn1Cc1c(Cl)cccc1Cl`: the T/C is 102 % of control under setting [1], 95 % of control under setting [12] and 96 % of control under setting [13].
As to `O=[N+]([O-])c1cccn2nc(C3OC(CO)C(O)C3O)nc12` (centres undefined), the T/C (dose: 6.25 mg/kg/injection, schedule: Q01DX009 (ip), vehicle: water) was 109 % of control; the T/C (dose: 12.5 mg/kg/injection, schedule: Q01DX009 (ip), vehicle: water) was 104 % of control; the T/C (dose: 25.0 mg/kg/injection, schedule: Q01DX009 (ip), vehicle: water) was 113 % of control; the T/C (dose: 50.0 mg/kg/injection, schedule: Q01DX009 (ip), vehicle: water) is 98 % of control; the T/C (dose: 100.0 mg/kg/injection, schedule: Q01DX009 (ip), vehicle: water) is 109 % of control.
Turning to `O=C1OC(c2ccccc2)=N/C1=C\c1ccccc1O`, the T/C was 101 % of control under setting [10], 101 % of control under setting [11] and 93 % of control under setting [14].
Take `COc1cccc2cc(-n3nnc4cc([N+](=O)[O-])ccc43)c(=O)oc12`: the T/C is 95 % of control (dose: 12.5 mg/kg/injection, schedule: Q01DX005 (ip), vehicle: saline with Tween-80); 93 % of control (dose: 25.0 mg/kg/injection, schedule: Q01DX005 (ip), vehicle: saline with Tween-80); 92 % of control and 95 % of control under setting [15]; 97 % of control under setting [16]; 98 % of control under setting [17].
On to `COc1ccc(/C=C/C(=O)c2c(N)n(C)c(=O)n(C)c2=O)cc1`, for which the T/C was 91 % of control under setting [10] and 88 % of control under setting [11].
Regarding `CC(C)(C)COC(=O)NC1CCC2CCCCC2C1` (centres undefined), the T/C runs as follows: (dose: 50.0 mg/kg/injection, schedule: Q01DX009 (ip), vehicle: saline) 88 % of control; (dose: 100.0 mg/kg/injection, schedule: Q01DX009 (ip), vehicle: saline) 97 % of control; (dose: 200.0 mg/kg/injection, schedule: Q01DX009 (ip), vehicle: saline) 101 % of control.
On to `O=C1c2cc3c(cc2C(=O)c2cc(-c4ccccc4)c(-c4ccccc4)cc21)OCO3`, for which the T/C under setting [18] is 92 % of control; the T/C under setting [19] was 100 % of control; the T/C under setting [20] is 98 % of control and 102 % of control.
For `O=C(O)c1ccc(N=CC2CO2)cc1` (centres undefined), the T/C was 99 % of control under setting [5], 102 % of control under setting [6] and 87 % of control under setting [7].
As for `CC(=O)OCC#CCN1CCCCCC1`, the T/C (dose: 50.0 mg/kg/injection, schedule: Q01DX005 (ip), vehicle: saline) is 91 % of control and the T/C (dose: 100.0 mg/kg/injection, schedule: Q01DX005 (ip), vehicle: saline) was 92 % of control.
As for `CNC(=O)c1ccccc1NC(=O)c1ccccc1N=[N+]=[N-]`, the T/C under setting [10] was 100 % of control, the T/C under setting [11] was 100 % of control and the T/C under setting [14] is 98 % of control.
On to `CC(C)(C)C(Br)C(=O)NN=C(c1ccccc1)c1ccccc1` (centres undefined), for which the T/C runs as follows: under setting [5], 106 % of control; under setting [6], 105 % of control; under setting [7], 99 % of control.
On to `NN/C(N)=N/S(=O)(=O)c1ccccc1`, for which the T/C reads like this: under setting [10], 107 % of control; under setting [11], 102 % of control.
On to `CC(C)(C)C(=O)/C=C/c1ccc(Cl)c(Cl)c1`, for which the T/C under setting [1] is 104 % of control, the T/C under setting [12] was 107 % of control and the T/C under setting [13] was 99 % of control.
For `CCCOc1cc2c(cc1C(C)c1ccc(OC)cc1)OCO2` (centres undefined), the T/C is 106 % of control (dose: 25.0 mg/kg/injection, schedule: Q01DX005 (ip), vehicle: distilled water + alcohol); 112 % of control and 114 % of control (dose: 400.0 mg/kg/injection, schedule: Q01DX005 (ip), vehicle: distilled water + alcohol).
As to `CCOC(=O)CSc1nnc(N)s1`, the T/C is 121 % of control under setting [5], 116 % of control under setting [6] and 98 % of control under setting [7].
For `N#CC(C(=O)C(=O)Nc1cccc(Cl)c1)c1ccccc1` (centres undefined), the T/C was 109 % of control under setting [15], 104 % of control under setting [16] and 99 % of control under setting [17].
`CCOP(O)(=S)OCC.[Yb]`: the T/C (dose: 100.0 mg/kg/injection, schedule: Q04DX003 (ip), vehicle: Klucel (hydroxypropylcellulose) (HPC)) was 96 % of control; the T/C (dose: 200.0 mg/kg/injection, schedule: Q04DX003 (ip), vehicle: Klucel (hydroxypropylcellulose) (HPC)) was 99 % of control; the T/C (dose: 400.0 mg/kg/injection, schedule: Q04DX003 (ip), vehicle: Klucel (hydroxypropylcellulose) (HPC)) is 90 % of control.
As to `O=C1CCC(Cc2ccc(C(F)(F)F)cc2)C(=O)N1` (centres undefined), the T/C under setting [18] was 102 % of control, the T/C under setting [19] is 95 % of control and the T/C under setting [20] was 98 % of control.
Regarding `COc1ccc2ccc3ccc(OC)c(OC(C)=O)c3c2c1`, the T/C is, setting by setting: under setting [21], 100 % of control; under setting [22], 98 % of control; under setting [23], 91 % of control.
The like results for `Cc1ccc2c(c1)Pc1cc(C)ccc1S2` were, in that order, 109 % of control, 101 % of control and 104 % of control.
For the compound `O=C(NC(=S)Nc1ccsc1)c1ccccc1`, the T/C reads like this: under setting [5], 90 % of control; under setting [6], 88 % of control.
As for `CC(=O)Oc1ccc(=O)[nH]c1`, under “dose: 12.5 mg/kg/injection, schedule: Q01DX009 (ip), vehicle: saline”, the T/C was 100 % of control and 105 % of control.
